Values joined by “and” are separate entries in the source; they are usually repeats but may differ in a detail not shown here. Equal entries are not always repeated.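 Briefly, cells in 96-well plates were exposed to five compound concentrations for 48 h, and endpoints were estimated by linear interpolation. Here, GI50 denotes the concentration required for 50% inhibition of growth.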 Active and inactive are the calls of the source. Rule as the data show it: active = GI50 up to about 1.1 µM and inactive = higher.
What was measured:
Test in all cases: DTP human tumour cell line panel, 48 h
HL-60 = system: HL-60
IGROV-1 = system: IGROV-1
K562 = system: K562
TK-10 = system: TK-10
CAKI-1 = system: CAKI-1
HOP-62 = system: HOP-62
NCI-H23 = system: NCI-H23
COLO 205 = system: COLO 205
A549 = system: A549
NCI-H226 = system: NCI-H226
786-0 = system: 786-0
PC-3 = system: PC-3
RPMI-8226 = system: RPMI-8226
T47D = system: T47D
NCI-H522 = system: NCI-H522
MDA-N = system: MDA-N
SW-620 = system: SW-620
SF-268 = system: SF-268
SK-MEL-28 = system: SK-MEL-28
SF-295 = system: SF-295

SMILES: C1=Cc2ccccc2C1.C=C(C)c1ccccc1.[N-]=[N+]=Nc1ccccc1
- GI50 (HL-60): 62.4 µM (inactive)
- GI50 (IGROV-1): > 100 µM (inactive)
- GI50 (K562): 46.9 µM (inactive)
- GI50 (TK-10): > 100 µM (inactive)
- GI50 (CAKI-1): > 100 µM (inactive)
- GI50 (HOP-62): > 100 µM (inactive)
- GI50 (NCI-H23): > 100 µM (inactive)
- GI50 (COLO 205): > 100 µM (inactive)
- GI50 (A549): > 100 µM (inactive)
- GI50 (NCI-H226): 52.1 µM (inactive)
- GI50 (786-0): > 100 µM (inactive)
- GI50 (PC-3): > 100 µM (inactive)
- GI50 (RPMI-8226): 80 µM (inactive)
- GI50 (T47D): 68.5 µM (inactive)
- GI50 (NCI-H522): 34.3 µM (inactive)
- GI50 (MDA-N): 72.3 µM (inactive)
- GI50 (SW-620): 67.3 µM (inactive)
- GI50 (SF-268): > 100 µM (inactive)
- GI50 (SK-MEL-28): > 100 µM (inactive)
- GI50 (SF-295): > 100 µM (inactive)

SMILES: O=C1/C(=C/c2ccco2)N=C(c2ccccc2)N1c1ccc(S(=O)(=O)Nc2nccs2)cc1
- GI50 (HL-60): 89.9 µM (inactive)
- GI50 (IGROV-1): > 100 µM (inactive)
- GI50 (K562): > 100 µM (inactive)
- GI50 (TK-10): > 100 µM (inactive)
- GI50 (CAKI-1): > 100 µM (inactive)
- GI50 (HOP-62): > 100 µM (inactive)
- GI50 (NCI-H23): > 100 µM (inactive)
- GI50 (COLO 205): > 100 µM (inactive)
- GI50 (A549): 89.7 µM (inactive)
- GI50 (NCI-H226): > 100 µM (inactive)
- GI50 (786-0): > 100 µM (inactive)
- GI50 (PC-3): 86.3 µM (inactive)
- GI50 (RPMI-8226): 41.7 µM (inactive)
- GI50 (T47D): 80.4 µM (inactive)
- GI50 (NCI-H522): 30.9 µM (inactive)
- GI50 (MDA-N): > 100 µM (inactive)
- GI50 (SW-620): > 100 µM (inactive)
- GI50 (SF-268): > 100 µM (inactive)
- GI50 (SF-295): > 100 µM (inactive)

SMILES: COc1ccc(/N=C/N(C)C)c(C)c1
- GI50 (HL-60): 0.13 µM (active)
- GI50 (IGROV-1): 9.48 µM (inactive)
- GI50 (K562): 2.51 µM (inactive)
- GI50 (TK-10): 19.8 µM (inactive)
- GI50 (CAKI-1): 35.6 µM (inactive)
- GI50 (HOP-62): 18.3 µM (inactive)
- GI50 (NCI-H23): 2 µM (inactive)
- GI50 (COLO 205): 10.5 µM (inactive)
- GI50 (A549): 7.23 µM (inactive)
- GI50 (NCI-H226): 11.2 µM (inactive)
- GI50 (786-0): 13.6 µM (inactive)
- GI50 (PC-3): 3.17 µM (inactive)
- GI50 (RPMI-8226): > 100 µM (inactive)
- GI50 (T47D): 9.55 µM (inactive)
- GI50 (NCI-H522): 2.43 µM (inactive)
- GI50 (MDA-N): 6.18 µM (inactive)
- GI50 (SF-268): 19 µM (inactive)
- GI50 (SK-MEL-28): 12.6 µM (inactive)
- GI50 (SF-295): 11 µM (inactive)

SMILES: CCOC(=O)C(CCSC)(CCSC)C(=O)OCC
- GI50 (IGROV-1): > 100 µM (inactive)
- GI50 (K562): > 100 µM (inactive)
- GI50 (TK-10): > 100 µM (inactive)
- GI50 (CAKI-1): > 100 µM (inactive)
- GI50 (HOP-62): > 100 µM (inactive)
- GI50 (NCI-H23): > 100 µM (inactive)
- GI50 (COLO 205): > 100 µM (inactive)
- GI50 (A549): > 100 µM (inactive)
- GI50 (NCI-H226): > 100 µM (inactive)
- GI50 (786-0): > 100 µM (inactive)
- GI50 (PC-3): > 100 µM (inactive)
- GI50 (RPMI-8226): > 100 µM (inactive)
- GI50 (T47D): > 100 µM (inactive)
- GI50 (NCI-H522): > 100 µM (inactive)
- GI50 (MDA-N): > 100 µM (inactive)
- GI50 (SW-620): > 100 µM (inactive)
- GI50 (SF-268): > 100 µM (inactive)
- GI50 (SK-MEL-28): > 100 µM (inactive)
- GI50 (SF-295): > 100 µM (inactive)

SMILES: COC(=O)C1OC(O[C@H]2CC[C@]3(C)[C@H]4CC=C5[C@@H]6CC(C)(C)CC[C@]6(C(=O)OC6OCC(O)C(O)C6OC6OC(C)C(OC7OCC(O)C(OC8OCC(O)C(O)C8O)C7O)C(OC7OCC(O)C(O)C7O)C6O)CC[C@@]5(C)[C@]4(C)CC[C@H]3C2(C)C)C(O)C(OC2OCC(O)C(O)C2O)C1O (stereo partly drawn)
- GI50 (HL-60): 2.28 µM (inactive) and 1.97 µM (inactive)
- GI50 (IGROV-1): 7.41 µM (inactive) and 9.25 µM (inactive)
- GI50 (K562): 4.94 µM (inactive) and 3.94 µM (inactive)
- GI50 (TK-10): 7.35 µM (inactive) and 11.9 µM (inactive)
- GI50 (CAKI-1): 5.24 µM (inactive) and 4.84 µM (inactive)
- GI50 (NCI-H23): 4.52 µM (inactive) and 3.81 µM (inactive)
- GI50 (COLO 205): 1.6 µM (inactive) and 1.52 µM (inactive)
- GI50 (A549): 3.17 µM (inactive) and 3.16 µM (inactive)
- GI50 (NCI-H226): 2.9 µM (inactive) and 4.98 µM (inactive)
- GI50 (786-0): 5.01 µM (inactive) and 7.71 µM (inactive)
- GI50 (PC-3): 4.46 µM (inactive) and 4.32 µM (inactive)
- GI50 (RPMI-8226): 2.62 µM (inactive) and 4.37 µM (inactive)
- GI50 (T47D): 3.45 µM (inactive) and 3.29 µM (inactive)
- GI50 (NCI-H522): 1.95 µM (inactive) and 1.77 µM (inactive)
- GI50 (MDA-N): 2.02 µM (inactive) and 1.79 µM (inactive)
- GI50 (SW-620): 9.2 µM (inactive) and 8.04 µM (inactive)
- GI50 (SF-268): 6.53 µM (inactive) and 8.45 µM (inactive)
- GI50 (SK-MEL-28): 2.37 µM (inactive) and 2.07 µM (inactive)
- GI50 (SF-295): 5.19 µM (inactive) and 3.39 µM (inactive)

SMILES: CC(=O)NC1C(OCC(=O)NCCNc2ccc([N+](=O)[O-])c3[nH]c4ccccc4c(=O)c23)C(O)C(CO)OC1(C)OCc1ccccc1 (stereo not drawn)
- GI50 (IGROV-1): > 100 µM (inactive)
- GI50 (K562): > 100 µM (inactive)
- GI50 (TK-10): > 100 µM (inactive)
- GI50 (CAKI-1): > 100 µM (inactive)
- GI50 (HOP-62): > 100 µM (inactive)
- GI50 (NCI-H23): > 100 µM (inactive)
- GI50 (COLO 205): > 100 µM (inactive)
- GI50 (A549): > 100 µM (inactive)
- GI50 (NCI-H226): > 100 µM (inactive)
- GI50 (786-0): > 100 µM (inactive)
- GI50 (PC-3): > 100 µM (inactive)
- GI50 (RPMI-8226): > 100 µM (inactive)
- GI50 (T47D): > 100 µM (inactive)
- GI50 (NCI-H522): > 100 µM (inactive)
- GI50 (MDA-N): > 100 µM (inactive)
- GI50 (SW-620): > 100 µM (inactive)
- GI50 (SF-268): > 100 µM (inactive)
- GI50 (SF-295): > 100 µM (inactive)

SMILES: O=[N+]([O-])c1ccc2c(c1)c(OCc1ccccc1)nn2Cc1ccccc1
- GI50 (HL-60): > 100 µM (inactive)
- GI50 (IGROV-1): > 100 µM (inactive)
- GI50 (K562): > 100 µM (inactive)
- GI50 (TK-10): 62.1 µM (inactive)
- GI50 (CAKI-1): > 100 µM (inactive)
- GI50 (HOP-62): 36.3 µM (inactive)
- GI50 (NCI-H23): > 100 µM (inactive)
- GI50 (A549): 64.1 µM (inactive)
- GI50 (NCI-H226): > 100 µM (inactive)
- GI50 (786-0): 55 µM (inactive)
- GI50 (PC-3): 63.1 µM (inactive)
- GI50 (RPMI-8226): > 100 µM (inactive)
- GI50 (T47D): > 100 µM (inactive)
- GI50 (NCI-H522): 23 µM (inactive)
- GI50 (MDA-N): > 100 µM (inactive)
- GI50 (SW-620): > 100 µM (inactive)
- GI50 (SF-268): > 100 µM (inactive)
- GI50 (SK-MEL-28): 72.6 µM (inactive)
- GI50 (SF-295): 51.2 µM (inactive)

Source: ChEMBL document CHEMBL1201862, “PubChem BioAssay data set” (2004)
